Legend:
Assay in all cases: biochemical
Parameters in all cases: KINOMEscan active-site competition binding panel (468 kinase assays), per cent of control at 1000 nM
Details in all cases: KINOMEscan per cent of control (binding competition); read-out: Percent Control
FLT3(D835V) = FLT3(D835V) (Homo sapiens, UniProt P36888, D835V)
Description: (§1) Figure S7 / Percent Control

EGFR(L747-T751del,Sins) = EGFR(L747-T751del,Sins) (Homo sapiens, UniProt P00533, DEL747-750/T751S)
Description: as §1

[1] = biological target: T1, RSK2(Kin.Dom.2-C-terminal) (Homo sapiens, UniProt P51812)
T1 construct: gene RPS6KA3; Kin.Dom.2-C-terminal
Description: as §1

EGFR(L858R) = EGFR(L858R) (Homo sapiens, UniProt P00533, L858R)
Description: as §1

IRAK3 = IRAK3 (Homo sapiens, UniProt Q9Y616)
Description: as §1

TEC = TEC (Homo sapiens, UniProt P42680)
Description: as §1

STK16 = STK16 (Homo sapiens, UniProt O75716)
Description: as §1

RET(V804L) = RET(V804L) (Homo sapiens, UniProt P07949, V804L)
Description: as §1

HIPK4 = HIPK4 (Homo sapiens, UniProt Q8NE63)
Description: as §1

TLK2 = TLK2 (Homo sapiens, UniProt Q86UE8)
Description: as §1

CLK2 = CLK2 (Homo sapiens, UniProt P49760)
Description: as §1

PAK2 = PAK2 (Homo sapiens, UniProt Q13177)
Description: as §1

PKAC-alpha = biological target: T2, PKAC-alpha (Homo sapiens, UniProt P17612)
T2 construct: gene PRKACA
Description: as §1

ERBB4 = ERBB4 (Homo sapiens, UniProt Q15303)
Description: as §1

MINK = biological target: T3, MINK (Homo sapiens, UniProt Q8N4C8)
T3 construct: gene MINK1
Description: as §1

DCAMKL3 = biological target: T4, DCAMKL3 (Homo sapiens, UniProt Q9C098)
T4 construct: gene DCLK3
Description: as §1

RAF1 = RAF1 (Homo sapiens, UniProt P04049)
Description: as §1

CLK3 = CLK3 (Homo sapiens, UniProt P49761)
Description: as §1

DMPK = DMPK (Homo sapiens, UniProt Q09013)
Description: as §1

WEE2 = WEE2 (Homo sapiens, UniProt P0C1S8)
Description: as §1

FLT3(ITD) = FLT3(ITD) (Homo sapiens, UniProt P36888, ITD)
Description: as §1

HPK1 = biological target: T5, HPK1 (Homo sapiens, UniProt Q92918)
T5 construct: gene MAP4K1
Description: as §1

[2] = biological target: EGFR(L747-S752del, P753S) (Homo sapiens, UniProt P00533, DEL747-752/P753S)
Description: as §1

RIOK1 = RIOK1 (Homo sapiens, UniProt Q9BRS2)
Description: as §1

Chain of WEE2 (P0C1S8 whole entry): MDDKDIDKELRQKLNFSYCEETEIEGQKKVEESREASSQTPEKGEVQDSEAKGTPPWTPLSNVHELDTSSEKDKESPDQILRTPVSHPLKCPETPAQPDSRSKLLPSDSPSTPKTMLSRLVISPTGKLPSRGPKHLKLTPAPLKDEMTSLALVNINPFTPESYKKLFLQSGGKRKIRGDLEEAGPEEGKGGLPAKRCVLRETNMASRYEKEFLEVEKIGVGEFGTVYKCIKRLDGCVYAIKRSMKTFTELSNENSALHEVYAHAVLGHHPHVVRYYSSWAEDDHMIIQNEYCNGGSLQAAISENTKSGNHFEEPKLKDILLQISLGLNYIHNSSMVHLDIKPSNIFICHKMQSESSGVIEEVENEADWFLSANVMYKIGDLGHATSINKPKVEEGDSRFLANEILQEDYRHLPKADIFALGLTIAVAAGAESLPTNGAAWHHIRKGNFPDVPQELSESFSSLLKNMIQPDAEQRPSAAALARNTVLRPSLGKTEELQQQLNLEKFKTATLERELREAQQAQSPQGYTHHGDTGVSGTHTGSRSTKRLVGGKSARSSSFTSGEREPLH
Chain of DMPK (Q09013 whole entry): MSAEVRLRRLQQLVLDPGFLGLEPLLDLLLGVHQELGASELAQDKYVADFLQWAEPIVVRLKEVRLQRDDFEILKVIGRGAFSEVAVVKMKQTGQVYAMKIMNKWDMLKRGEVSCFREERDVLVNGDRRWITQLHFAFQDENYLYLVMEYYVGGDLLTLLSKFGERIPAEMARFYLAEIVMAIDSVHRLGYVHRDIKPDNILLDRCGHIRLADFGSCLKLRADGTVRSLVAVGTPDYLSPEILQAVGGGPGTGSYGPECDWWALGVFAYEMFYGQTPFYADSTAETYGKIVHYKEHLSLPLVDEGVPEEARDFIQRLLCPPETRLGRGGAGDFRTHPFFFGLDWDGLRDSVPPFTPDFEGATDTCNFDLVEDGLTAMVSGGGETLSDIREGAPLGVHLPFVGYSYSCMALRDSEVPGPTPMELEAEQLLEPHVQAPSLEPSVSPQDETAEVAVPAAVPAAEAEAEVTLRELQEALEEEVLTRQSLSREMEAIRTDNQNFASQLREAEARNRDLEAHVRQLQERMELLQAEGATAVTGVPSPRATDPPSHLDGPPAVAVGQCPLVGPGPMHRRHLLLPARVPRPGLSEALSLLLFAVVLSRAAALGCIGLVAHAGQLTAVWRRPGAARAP
Chain of IRAK3 (Q9Y616 whole entry): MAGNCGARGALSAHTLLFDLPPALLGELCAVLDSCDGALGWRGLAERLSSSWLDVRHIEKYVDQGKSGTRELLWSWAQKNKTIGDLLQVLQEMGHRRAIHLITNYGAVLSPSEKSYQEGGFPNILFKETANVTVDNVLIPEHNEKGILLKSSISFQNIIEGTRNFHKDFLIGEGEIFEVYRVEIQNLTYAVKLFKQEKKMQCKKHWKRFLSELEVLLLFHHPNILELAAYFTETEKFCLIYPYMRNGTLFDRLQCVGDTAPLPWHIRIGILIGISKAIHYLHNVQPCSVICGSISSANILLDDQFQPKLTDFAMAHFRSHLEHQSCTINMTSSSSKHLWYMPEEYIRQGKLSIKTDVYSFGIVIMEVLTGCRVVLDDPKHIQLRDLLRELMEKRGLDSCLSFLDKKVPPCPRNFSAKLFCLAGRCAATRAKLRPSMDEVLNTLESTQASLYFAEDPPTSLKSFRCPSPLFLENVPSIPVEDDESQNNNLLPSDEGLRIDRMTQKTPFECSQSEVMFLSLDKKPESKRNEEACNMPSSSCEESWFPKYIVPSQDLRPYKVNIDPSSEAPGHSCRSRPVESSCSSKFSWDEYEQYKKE
Chain of RAF1 (P04049 whole entry): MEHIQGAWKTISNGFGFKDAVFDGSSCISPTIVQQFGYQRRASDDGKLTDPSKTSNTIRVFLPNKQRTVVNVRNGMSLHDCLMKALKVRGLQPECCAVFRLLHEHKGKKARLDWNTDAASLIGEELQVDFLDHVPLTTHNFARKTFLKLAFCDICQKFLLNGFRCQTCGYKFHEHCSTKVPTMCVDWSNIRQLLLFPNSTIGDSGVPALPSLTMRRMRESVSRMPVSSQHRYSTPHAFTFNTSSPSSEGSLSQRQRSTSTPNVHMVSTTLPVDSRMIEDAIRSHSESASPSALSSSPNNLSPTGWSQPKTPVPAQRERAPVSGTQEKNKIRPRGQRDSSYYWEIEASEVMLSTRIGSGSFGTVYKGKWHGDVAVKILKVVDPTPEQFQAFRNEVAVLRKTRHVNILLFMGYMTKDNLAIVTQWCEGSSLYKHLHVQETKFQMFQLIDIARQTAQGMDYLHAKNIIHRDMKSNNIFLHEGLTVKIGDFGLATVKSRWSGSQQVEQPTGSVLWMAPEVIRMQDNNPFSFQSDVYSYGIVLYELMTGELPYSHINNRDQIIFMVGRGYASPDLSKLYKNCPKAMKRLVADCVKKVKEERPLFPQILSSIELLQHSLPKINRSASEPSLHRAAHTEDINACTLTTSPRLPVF
T4 sequence (Q9C098 whole entry): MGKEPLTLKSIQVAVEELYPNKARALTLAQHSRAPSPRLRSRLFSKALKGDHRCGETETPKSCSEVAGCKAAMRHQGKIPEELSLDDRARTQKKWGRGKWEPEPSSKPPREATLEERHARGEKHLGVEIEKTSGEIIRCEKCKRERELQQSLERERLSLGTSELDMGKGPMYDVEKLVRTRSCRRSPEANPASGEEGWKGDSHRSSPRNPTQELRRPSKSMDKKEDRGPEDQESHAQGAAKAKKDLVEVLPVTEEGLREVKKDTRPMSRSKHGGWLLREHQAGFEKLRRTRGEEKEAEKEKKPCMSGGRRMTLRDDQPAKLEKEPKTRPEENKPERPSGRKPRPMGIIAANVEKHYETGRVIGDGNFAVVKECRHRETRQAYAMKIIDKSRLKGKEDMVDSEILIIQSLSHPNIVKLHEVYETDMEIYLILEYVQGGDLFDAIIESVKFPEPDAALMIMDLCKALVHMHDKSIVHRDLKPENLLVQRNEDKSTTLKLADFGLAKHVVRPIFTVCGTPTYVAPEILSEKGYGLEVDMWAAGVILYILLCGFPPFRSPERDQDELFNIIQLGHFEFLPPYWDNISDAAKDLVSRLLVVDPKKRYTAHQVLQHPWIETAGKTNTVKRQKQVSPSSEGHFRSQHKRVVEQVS
Chain of EGFR(L747-T751del,Sins) (P00533 with tags, fused parts or gaps DEL747-750/T751S): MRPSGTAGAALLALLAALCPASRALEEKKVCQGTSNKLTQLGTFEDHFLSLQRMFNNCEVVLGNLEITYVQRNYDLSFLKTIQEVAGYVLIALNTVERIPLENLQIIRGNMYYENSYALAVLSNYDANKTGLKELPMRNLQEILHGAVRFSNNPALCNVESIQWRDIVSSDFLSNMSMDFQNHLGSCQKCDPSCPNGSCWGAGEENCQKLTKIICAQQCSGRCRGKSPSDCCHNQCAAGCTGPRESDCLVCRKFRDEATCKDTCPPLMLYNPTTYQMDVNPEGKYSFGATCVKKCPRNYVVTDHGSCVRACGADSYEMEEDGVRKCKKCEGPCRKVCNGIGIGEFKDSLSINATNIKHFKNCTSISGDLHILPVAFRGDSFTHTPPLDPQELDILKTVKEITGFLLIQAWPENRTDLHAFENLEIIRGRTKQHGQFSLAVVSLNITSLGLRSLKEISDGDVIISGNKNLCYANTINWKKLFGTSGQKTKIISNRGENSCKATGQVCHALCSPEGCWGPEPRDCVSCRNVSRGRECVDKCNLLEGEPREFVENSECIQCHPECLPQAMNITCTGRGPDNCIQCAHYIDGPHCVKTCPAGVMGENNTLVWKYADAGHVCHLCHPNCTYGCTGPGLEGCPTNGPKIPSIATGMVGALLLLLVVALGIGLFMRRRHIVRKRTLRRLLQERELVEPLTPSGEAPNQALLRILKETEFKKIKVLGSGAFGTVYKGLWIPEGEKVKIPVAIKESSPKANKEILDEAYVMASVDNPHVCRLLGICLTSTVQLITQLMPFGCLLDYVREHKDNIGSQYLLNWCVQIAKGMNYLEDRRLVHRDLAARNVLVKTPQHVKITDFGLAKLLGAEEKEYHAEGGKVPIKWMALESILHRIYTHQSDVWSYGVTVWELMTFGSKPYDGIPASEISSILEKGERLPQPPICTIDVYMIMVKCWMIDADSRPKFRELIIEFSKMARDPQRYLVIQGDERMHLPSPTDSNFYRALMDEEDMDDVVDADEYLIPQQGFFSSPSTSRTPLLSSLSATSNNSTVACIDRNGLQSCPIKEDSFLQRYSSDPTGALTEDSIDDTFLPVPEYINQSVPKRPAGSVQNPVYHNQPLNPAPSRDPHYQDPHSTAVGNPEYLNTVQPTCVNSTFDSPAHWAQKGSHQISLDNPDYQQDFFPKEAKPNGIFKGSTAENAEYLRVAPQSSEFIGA
Chain of PAK2 (Q13177 whole entry): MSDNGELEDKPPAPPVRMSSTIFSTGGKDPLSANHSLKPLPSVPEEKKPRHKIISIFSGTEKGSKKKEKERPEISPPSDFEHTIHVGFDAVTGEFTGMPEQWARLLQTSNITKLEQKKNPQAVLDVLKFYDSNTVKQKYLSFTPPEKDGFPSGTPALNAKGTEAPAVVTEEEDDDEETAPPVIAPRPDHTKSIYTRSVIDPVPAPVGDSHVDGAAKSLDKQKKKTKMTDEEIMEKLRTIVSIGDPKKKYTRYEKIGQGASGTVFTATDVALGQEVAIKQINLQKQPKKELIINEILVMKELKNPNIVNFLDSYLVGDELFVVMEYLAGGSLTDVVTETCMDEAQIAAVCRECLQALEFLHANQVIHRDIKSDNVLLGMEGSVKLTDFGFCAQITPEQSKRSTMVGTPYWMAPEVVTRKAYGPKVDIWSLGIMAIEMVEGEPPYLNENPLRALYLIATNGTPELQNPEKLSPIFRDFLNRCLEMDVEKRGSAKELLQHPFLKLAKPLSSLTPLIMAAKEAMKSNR

Cn1c(=O)[nH]c2ccc(-c3cccc(C(=O)NC4CCn5ccnc5C4)c3)cc21 (stereo not drawn) [Z36-MP5]
remaining binding at 1 µM (FLT3(D835V)): 55% | remaining binding at 1 µM (EGFR(L747-T751del,Sins)): 84% | remaining binding at 1 µM [1]: 63% | remaining binding at 1 µM (EGFR(L858R)): 99% | remaining binding at 1 µM (IRAK3): 99% | remaining binding at 1 µM (TEC): 98% | remaining binding at 1 µM (STK16): 31% | remaining binding at 1 µM (RET(V804L)): 75% | remaining binding at 1 µM (HIPK4): 91% | remaining binding at 1 µM (TLK2): 53% | remaining binding at 1 µM (CLK2): 90% | remaining binding at 1 µM (PAK2): 63% | remaining binding at 1 µM (PKAC-alpha): 85% | remaining binding at 1 µM (ERBB4): 96% | remaining binding at 1 µM (MINK): 69% | remaining binding at 1 µM (DCAMKL3): 92% | remaining binding at 1 µM (RAF1): 83% | remaining binding at 1 µM (CLK3): 91% | remaining binding at 1 µM (DMPK): 99% | remaining binding at 1 µM (WEE2): 96% | remaining binding at 1 µM (FLT3(ITD)): 92% | remaining binding at 1 µM (HPK1): 83% | remaining binding at 1 µM [2]: 51% | remaining binding at 1 µM (RIOK1): 47%
